Test results published in patent US20050102708A1, “Animal model simulating neurologic disease” (priority 2003, published 2005).

Columns and labels:
[1] = test system: Hyperphosphorylated Tau protein; experiment: ELISA of hyperphosphorylated Tau protein in CSF; format: in vivo, rat; conditions: rats, four week infusion into the left ventricle
Experimental: (§1) Surgical procedure: Anesthetized rats (equitesin, 3 ml/kg, i.p.) were placed on a stereotaxic frame. Using the electrode micromanipulator, the outlet of an osmotic micropump (Durect Corp., Cupertino, Calif.) was implanted into the left ventricle following the coordinates D=3.4 mm, L=1.4 mm and AP=0.92 mm prior to the bregma. The tank of the osmotic pump was implanted in a subcutaneous pocket in the midscapular area of the back of the rat. After surgery rats were put on a heating blanket for recovery. During the whole procedure, the body temperature was monitored and kept stable at 37° C.
Perfusion: Rats were divided into six groups regarding the composition of the solution contained in the osmotic micropump tank, as provided in Table 1. Group I served as the control group and received only artificial cerebrospinal fluid (“CSF”).
ELISA: Hyperphosphorylated Tau protein was measured in the CSF using the Elisa kit INNOTEST™ (Innogenetics, Belgium).

Long-Evans male rats = experiment: Morris watermaze memory retention test; format: in vivo, rat; conditions: four week infusion into the left ventricle, tested at end of perfusion period
Description: Inducing a Neurologic Disease in a Non-Human Animal. Animals: Long-Evans male rats weighing 300-325 grams were housed following a natural day-night cycle with food and water ad libitum.
Morris watermaze protocol: Before the surgery, the rats were trained on a standard Morris spatial navigation task in a black water tank (200 cm diameter). The water was rendered opaque by water-miscible non-toxic white paint (Crayola Inc.). The rats were placed in four different, randomly assigned, start positions and trained to find an invisible platform (20 cm diameter) at a fixed position in the middle of the water tank. The water temperature was about 24° C. A trial lasted until a rat found the platform or until 120 seconds elapsed. […] Rats were trained for four consecutive days, four trials a day, with 30 minutes between subsequent trials. Surgery procedures were performed on the fifth day. Rats were tested again for memory retention at the end of the four weeks-perfusion period.
as §1, with “The tank of the osmotic pump was implanted in a subcutaneous pocket in the midscapular area of the back of the rat. After surgery rats were put on a heating blanket for recovery.” left out, “C. […]” for “C.”

## β42-amyloid peptide [Aβ42]
[1]
  phosphorylated Tau protein in the CSF: not sufficient to induce
Long-Evans male rats
  memory impairment / latency to retrieve the platform in the Morris watermaze test: not sufficient to induce memory impairment
